In ChEMBL document CHEMBL5154804, “Species-Selective Targeting of Fungal Hsp90: Design, Synthesis, and Evaluation of Novel 4,5-Diarylisoxazole Derivatives for the Combination Treatment of Azole-Resistant Candidiasis” (J Med Chem, 2022):
The source made the active and inactive calls. The rule behind the calls is not given here.

What was measured:
Candida albicans [1] = test: Synergistic antifungal activity against fluconazole-resistant Candida albicans 311 assessed as inhibition of fungal growth in presence of fluconazole by checker board microdilution assay; format: functional
[2] = Metabolic stability in human liver microsomes assessed as intrinsic clearance in presence of NADPH cofactor under shaking condition for 10 mins measured after 5 to 60 mins by LC-MS/MS analysis; format: ADME, Microsome; settings: time 15-70 min
Candida albicans [3] = test: Induction of morphological changes in Candida albicans 904 assessed as hyphal formation by measuring CPH1 level incubated for 4 hrs in presence of fluconazole; format: functional, organism-based
[4] = Cytotoxicity against mouse BV-2 cell assessed as inhibition of cell growth after 24 hrs by MTT assay; format: toxicity, cell-based; settings: BV-2 cells
Candida albicans [5] = test: Synergetic antifungal activity against fluconazole-resistant Candida albicans 100 assessed as fractional inhibitory concentration index in presence of fluconazole by checker board microdilution assay; format: functional
[6] = Metabolic stability in human liver microsomes assessed as half life in presence of NADPH cofactor under shaking condition for 10 mins measured after 5 to 60 mins by LC-MS/MS analysis; format: ADME, Microsome; settings: time 15-70 min
Candida albicans [7] = test: Antifungal activity against fluconazole-resistant Candida albicans 311 assessed as inhibition of fungal growth by checker board microdilution assay; format: functional
[8] = Cytotoxicity against human THLE-2 cell assessed as inhibition of cell growth after 24 hrs by MTT assay; format: toxicity, cell-based; settings: THLE-2 cells
Candida albicans [9] = test: Potentiation of fluconazole-induced antifungal activity against fluconazole-resistant Candida albicans 901 assessed as fluconazole MIC by checker board microdilution assay; format: functional
Candida albicans [10] = test: Potentiation of fluconazole-induced antifungal activity against fluconazole-resistant Candida albicans 100 assessed as fluconazole MIC by checker board microdilution assay; format: functional
Candida albicans [11] = test: Antibiofilm activity against Candida albicans 904 assessed as inhibition of […] metabolism within the biofilm after 24 hrs by XTT reduction assay; format: functional
Candida albicans [12] = test: Antifungal activity against fluconazole-resistant Candida albicans 901 assessed as inhibition of fungal growth by checker board microdilution assay; format: functional
Candida albicans [13] = test: Synergetic antifungal activity against fluconazole-resistant Candida albicans 103 assessed as fractional inhibitory concentration index in presence of fluconazole by checker board microdilution assay; format: functional
Candida albicans [14] = test: Induction of morphological changes in Candida albicans 904 assessed as hyphal formation by measuring EFG1 level incubated for 4 hrs in presence of fluconazole; format: functional, organism-based
Candida albicans [15] = test: Synergistic antifungal activity against fluconazole-resistant Candida albicans 901 assessed as inhibition of fungal growth in presence of fluconazole by checker board microdilution assay; format: functional
Candida albicans [16] = test: Synergetic antifungal activity against fluconazole-resistant Candida albicans 311 assessed as fractional inhibitory concentration index in presence of fluconazole by checker board microdilution assay; format: functional
Candida albicans [17] = test: Synergistic antibiofilm activity against Candida albicans 904 assessed as inhibition of […] metabolism within the biofilm in presence of fluconazole after 24 hrs by XTT reduction assay; format: functional
Candida albicans [18] = test: Antifungal activity against fluconazole-resistant Candida albicans 103 assessed as inhibition of fungal growth by checker board microdilution assay; format: functional
Candida albicans [19] = test: Synergistic antibiofilm activity in Candida albicans 904 assessed as downregulation of TEC1 at 32 ug/ml incubated for 24 hrs in presence of fluconazole by RT-PCR analysis; format: functional, organism-based; settings: dose 32.0 µg/ml
Candida albicans [20] = test: Synergistic antibiofilm activity in Candida albicans 904 assessed as downregulation of ALS3 at 32 ug/ml incubated for 24 hrs in presence of fluconazole by RT-PCR analysis; format: functional, organism-based; settings: dose 32.0 µg/ml
Candida albicans [21] = test: Synergetic antifungal activity against fluconazole-resistant Candida albicans 904 assessed as fractional inhibitory concentration index in presence of fluconazole by checker board microdilution assay; format: functional
[22] = Stability in human plasma assessed as compound remaining at 120 mins by LC-MS/MS analysis; format: ADME, cell-free; settings: read-out: Stability
Candida albicans [23] = test: Potentiation of fluconazole-induced antifungal activity against fluconazole-resistant Candida albicans 311 assessed as fluconazole MIC by checker board microdilution assay; format: functional
CYP3A4 = CYP3A4 (Homo sapiens, UniProt P08684); test: Inhibition of CYP3A4 in human liver microsome at 10 uM using midazolam as substrate incubated for 10 mins in presence of NADPH cofactor by LC-MS/MS analysis; format: ADME; settings: liver microsomes, probe midazolam
[24] = Stability in rat plasma assessed as compound remaining at 120 mins by LC-MS/MS analysis; format: ADME, cell-free; settings: read-out: Stability
[25] = AUC (0 to t) in Sprague-Dawley rat at 10 mg/kg, iv measured upto 24 hrs by LC/MS/MS analysis; format: ADME, organism-based; parameters: time < 24 hrs, dose 10 mg/kg, route iv; settings: in vivo
[26] = Stability in rat plasma assessed as half life at 120 mins by LC-MS/MS analysis; format: ADME, cell-free
Rattus norvegicus = test: In vivo antifungal activity against azole resistant Candida albicans 904 infected in rat assessed as decrease in fungal invasion at 10 mg/kg, ip in presence of fluconazole administered for 5 days, qd by PAS and HE staining based microscopy; format: functional, organism-based; settings: time 5.0 day
[27] = Metabolic stability in rat liver microsomes assessed as intrinsic clearance in presence of NADPH cofactor under shaking condition for 10 mins measured after 5 to 60 mins by LC-MS/MS analysis; format: ADME, Microsome; settings: time 15-70 min
[28] = Half life in Sprague-Dawley rat at 10 mg/kg, iv measured upto 24 hrs by LC/MS/MS analysis; format: ADME, organism-based; settings: in vivo
[29] = MRT (0 to infinity) in Sprague-Dawley rat at 10 mg/kg, iv measured upto 24 hrs by LC/MS/MS analysis; format: ADME, organism-based; settings: in vivo
[30] = Cmax in Sprague-Dawley rat at 10 mg/kg, iv measured up to 24 hrs by LC/MS/MS analysis; format: ADME, organism-based; parameters: dose 10 mg/kg, time < 24 hrs, route iv; settings: in vivo
[31] = Clearance in Sprague-Dawley rat at 10 mg/kg, iv measured upto 24 hrs by LC/MS/MS analysis; format: ADME, organism-based; settings: in vivo
CYP1A2 = molecular target: T1, CYP1A2 (Homo sapiens, UniProt P05177); test: Inhibition of CYP1A2 in human liver microsome at 10 uM using phenacetin as substrate incubated for 10 mins in presence of NADPH cofactor and fluconazole by LC-MS/MS analysis; format: ADME; settings: liver microsomes, probe phenacetin
T1 sequence (P05177 whole entry): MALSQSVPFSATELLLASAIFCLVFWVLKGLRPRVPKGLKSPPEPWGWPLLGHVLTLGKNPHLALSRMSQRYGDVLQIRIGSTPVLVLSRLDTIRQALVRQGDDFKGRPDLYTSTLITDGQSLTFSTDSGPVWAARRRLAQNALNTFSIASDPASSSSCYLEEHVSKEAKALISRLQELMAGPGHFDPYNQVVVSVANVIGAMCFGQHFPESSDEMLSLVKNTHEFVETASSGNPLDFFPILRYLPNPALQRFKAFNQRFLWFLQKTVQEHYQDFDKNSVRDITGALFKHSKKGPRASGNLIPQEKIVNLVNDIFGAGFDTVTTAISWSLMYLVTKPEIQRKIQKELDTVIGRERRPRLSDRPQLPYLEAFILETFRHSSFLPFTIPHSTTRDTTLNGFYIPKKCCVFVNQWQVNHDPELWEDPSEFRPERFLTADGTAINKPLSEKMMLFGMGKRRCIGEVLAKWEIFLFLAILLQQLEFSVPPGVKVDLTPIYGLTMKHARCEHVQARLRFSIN

Chain of CYP3A4 (P08684 whole entry): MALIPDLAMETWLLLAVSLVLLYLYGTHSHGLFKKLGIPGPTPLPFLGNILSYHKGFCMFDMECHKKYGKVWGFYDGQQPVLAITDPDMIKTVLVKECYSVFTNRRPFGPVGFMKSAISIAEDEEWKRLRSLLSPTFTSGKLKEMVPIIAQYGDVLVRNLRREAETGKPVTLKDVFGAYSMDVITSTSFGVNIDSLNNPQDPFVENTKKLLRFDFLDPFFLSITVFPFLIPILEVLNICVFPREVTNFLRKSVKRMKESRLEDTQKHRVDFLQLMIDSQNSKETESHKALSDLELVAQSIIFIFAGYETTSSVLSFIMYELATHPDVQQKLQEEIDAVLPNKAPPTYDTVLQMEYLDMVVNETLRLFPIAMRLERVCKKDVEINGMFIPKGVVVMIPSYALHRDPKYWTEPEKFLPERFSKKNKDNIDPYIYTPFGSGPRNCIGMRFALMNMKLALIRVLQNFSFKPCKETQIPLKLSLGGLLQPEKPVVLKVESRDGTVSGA

| Structure (SMILES) | MIC80 (Candida albicans [1]) [µg/mL] | CLint [2] [mL/min/kg] | Activity (Candida albicans [3]) | IC50 at 24 h [4] [µM] | fractional inhibitory concentration index (FICI) (Candida albicans [5]) | half-life [6] [h] | MIC80 (Candida albicans [7]) [µg/mL] | IC50 at 24 h [8] [µM] | MIC80 (Candida albicans [9]) [µg/mL] | MIC80 (Candida albicans [10]) [µg/mL] | MIC50 (Candida albicans [11]) [µg/mL] | MIC80 (Candida albicans [12]) [µg/mL] | fractional inhibitory concentration index (FICI) (Candida albicans [13]) | Activity (Candida albicans [14]) | MIC80 (Candida albicans [15]) [µg/mL] | fractional inhibitory concentration index (FICI) (Candida albicans [16]) | MIC50 (Candida albicans [17]) [µg/mL] | MIC80 (Candida albicans [18]) [µg/mL] | Activity (Candida albicans [19]) | Activity (Candida albicans [20]) | other results |
| --- | --- | --- | --- | --- | --- | --- | --- | --- | --- | --- | --- | --- | --- | --- | --- | --- | --- | --- | --- | --- | --- |
| CNC(=O)c1noc(-c2cc(-c3ccc(C)cc3)c(O)cc2O)c1-c1ccc(CN2CCOCC2)cc1 | 2 | 50.3 | Active | 11.1 | 0.035 | 0.413 | > 64 | 10.6 | 2 | 2 | > 64 | > 64 | 0.047 | Active | 0.5 | 0.062 | 1 | > 64 | Active | Active | fractional inhibitory concentration index (FICI) (Candida albicans [21]): 0.02; remaining at 2 h [22]: 92.8%; MIC80 (Candida albicans [23]): 2 µg/mL; inhibition at 10 min, 10 µM (CYP3A4): 43.2% |
| CCNC(=O)c1noc(-c2cc(-c3ccc(C)cc3)c(O)cc2O)c1-c1ccc(CN2CCOCC2)cc1 | 0.25 | 38.9 | Active | 10.3 | 0.033 | 0.535 | > 64 | 7.15 | 1 | 2 | > 64 | > 64 | 0.035 | Active | 0.125 | 0.035 | 0.25 | > 64 | Active | Active | remaining at 2 h [24]: 99.4%; AUC(0-t) at 24 h [25]: 3010 ng·h/mL; half-life [26]: > 4.8 h; Activity (Rattus norvegicus): Active; CLint [27]: 81.6 mL/min/kg; half-life [28]: 1.26 h; MRT inf [29]: 1.12 h; fractional inhibitory concentration index (FICI) (Candida albicans [21]): 0.035; Cmax [30]: 3440 ng/mL; remaining at 2 h [22]: 110%; MIC80 (Candida albicans [23]): 2 µg/mL; inhibition at 10 min, 10 µM (CYP3A4): 36.7%; clearance [31]: 102 mL/min/kg; inhibition at 10 min, 10 µM (CYP1A2): 17.8% |
